These results are taken from article PMC11279404, “Discovery of 1H-benzo[d]imidazole-(halogenated)Benzylidenebenzohydrazide Hybrids as Potential Multi-Kinase Inhibitors” (Pharmaceuticals, 2024).

In series [1] the test system is MCF-7 (mammary gland breast cancer cell line). Description: MTT in vitro cytotoxicity, MCF-7. Format: cell-based, human. As to conditions: for IC50: Homo sapiens, MCF7, MTT, mean ± SD of triplicate; for SI (Selectivity Index) MCF-7: IC50 of WI-38 / IC50 of MCF-7.
The test system of series [2] is cancer cell lines (HCT-116, HepG2, MCF-7). In words: MTT in vitro cytotoxicity, summary across the cancer cell line panel. Format: cell-based. As to conditions: Homo sapiens; summary over HCT-116, HepG2, MCF-7; read-out: IC50 values across the tested cancer cell lines. How it is done: The cytotoxic activities of compounds 6a-l were assessed using a standard MTT method, which was performed across three different cancer cell line models, namely human colon cancer (HCT-116), hepatocellular carcinoma (HepG2), mammary gland cancer (MCF-7), and normal (WI-38) cell lines. […] […]. Substitution at the 4-position, as in the case of compounds 6d, 6g, and 6j, also seems beneficial, with fluoro (6j) showing the best results. […]. Overall, the cytotoxicity data provide valuable insights into the structure–activity relationships of the synthesized compounds and can guide further optimization efforts to develop potential anticancer agents with improved potency and selectivity.
. The SI values represent the ratio of the IC50 values for the normal WI-38 cell line compared with the respective cancer cell lines, with higher SI values indicating greater selectivity for the cancer cells over normal cells. […]. The cytotoxic potential of compounds 6a-l was evaluated against a panel of cancer cell lines, including HCT-116, HepG2, and MCF-7, as well as a normal cell line, WI-38, using the reported methodology. The cell lines utilized in this study were obtained from the American Type Culture Collection (ATCC) through the Holding Company for Biological Products and Vaccines (VACSERA) in Cairo, Egypt. These included: 1. A human colon cancer cell line (HCT-116); 2. Hepatocellular carcinoma (HepG2)—a liver cancer cell line; 3. Mammary gland breast cancer (MCF-7); and 4. A human lung fibroblast (WI-38)—a normal cell line.

Series [3] is described as follows: MTT in vitro cytotoxicity, normal WI-38. Format: cell-based. As to conditions: human, WI-38 normal lung fibroblast cells, normal cell line, mean ± SD of triplicate.
The subject of series [4] is HepG2 (hepatocellular carcinoma cell line). In words: MTT in vitro cytotoxicity, HepG2. Conditions: for IC50: Homo sapiens, HepG2, MTT, mean ± SD of triplicate; for SI (Selectivity Index) HepG2: IC50 of WI-38 / IC50 of HepG2. Format: cell-based, human.
Series [5] relates to HCT-116 (human colon cancer cell line). Description: MTT in vitro cytotoxicity, HCT-116. As to conditions: for IC50: Homo sapiens, HCT-116, MTT, mean ± SD of triplicate; for SI (Selectivity Index) HCT-116: IC50 of WI-38 / IC50 of HCT-116. Format: cell-based.
For a further series, the target named is Her2 (Homo sapiens, UniProt P04626). In words: In vitro protein kinase inhibition, Her2.
Her2, sequence (P04626 23-1255): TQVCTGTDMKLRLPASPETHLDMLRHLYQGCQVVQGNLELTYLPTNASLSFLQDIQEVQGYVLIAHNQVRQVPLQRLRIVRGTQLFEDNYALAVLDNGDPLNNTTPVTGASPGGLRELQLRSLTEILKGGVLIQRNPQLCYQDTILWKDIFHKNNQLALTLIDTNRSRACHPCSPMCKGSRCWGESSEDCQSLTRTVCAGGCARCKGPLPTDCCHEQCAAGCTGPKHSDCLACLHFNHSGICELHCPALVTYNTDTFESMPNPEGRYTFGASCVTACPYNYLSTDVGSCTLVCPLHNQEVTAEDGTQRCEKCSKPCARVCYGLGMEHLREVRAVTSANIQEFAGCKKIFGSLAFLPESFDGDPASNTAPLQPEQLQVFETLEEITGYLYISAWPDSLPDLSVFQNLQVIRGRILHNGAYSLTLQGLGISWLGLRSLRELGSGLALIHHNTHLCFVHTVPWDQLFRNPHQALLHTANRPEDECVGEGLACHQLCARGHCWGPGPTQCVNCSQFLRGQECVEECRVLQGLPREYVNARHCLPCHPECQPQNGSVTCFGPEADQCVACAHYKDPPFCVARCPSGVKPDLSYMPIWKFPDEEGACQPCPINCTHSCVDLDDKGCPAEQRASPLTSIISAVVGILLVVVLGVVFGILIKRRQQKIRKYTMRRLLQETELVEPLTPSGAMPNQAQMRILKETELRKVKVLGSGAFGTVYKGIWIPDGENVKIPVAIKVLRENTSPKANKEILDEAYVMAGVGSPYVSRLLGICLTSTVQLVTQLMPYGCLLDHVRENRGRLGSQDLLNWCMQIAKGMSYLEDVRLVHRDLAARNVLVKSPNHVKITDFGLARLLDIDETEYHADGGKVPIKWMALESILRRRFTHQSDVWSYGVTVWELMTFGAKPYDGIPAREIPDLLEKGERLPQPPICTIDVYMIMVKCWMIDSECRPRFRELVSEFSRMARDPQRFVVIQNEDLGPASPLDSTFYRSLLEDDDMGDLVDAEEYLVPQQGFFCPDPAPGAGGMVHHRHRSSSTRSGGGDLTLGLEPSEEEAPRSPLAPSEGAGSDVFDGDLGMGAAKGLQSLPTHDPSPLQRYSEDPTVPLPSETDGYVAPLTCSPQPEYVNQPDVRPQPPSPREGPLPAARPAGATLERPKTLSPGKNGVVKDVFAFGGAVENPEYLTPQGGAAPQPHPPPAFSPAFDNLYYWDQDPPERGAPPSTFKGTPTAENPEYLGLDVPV
Another series addresses T1, AURKC (Homo sapiens, UniProt Q9UQB9).
T1 sequence (Q9UQB9 1-309): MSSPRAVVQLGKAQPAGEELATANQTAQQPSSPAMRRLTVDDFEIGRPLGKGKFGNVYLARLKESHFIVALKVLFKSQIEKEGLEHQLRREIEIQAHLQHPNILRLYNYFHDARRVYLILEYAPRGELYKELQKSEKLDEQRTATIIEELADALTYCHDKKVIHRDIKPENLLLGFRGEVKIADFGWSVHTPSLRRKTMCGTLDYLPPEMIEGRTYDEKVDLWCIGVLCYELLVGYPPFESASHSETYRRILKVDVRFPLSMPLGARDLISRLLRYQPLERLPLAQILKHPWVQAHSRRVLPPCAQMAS
Description: In vitro protein kinase inhibition, AURKC.

The next series deals with CDK2 (Homo sapiens, UniProt P24941). In words: In vitro protein kinase inhibition, CDK2.
A further series addresses VEGFR2 (Homo sapiens, UniProt P35968). In words: In vitro protein kinase inhibition, VEGFR2. In kind it is biochemical. As to conditions: mean ± SD of triplicate. An excerpt:
[…]. […] […].

The next series addresses EGFR (Homo sapiens, UniProt P00533). In words: In vitro protein kinase inhibition, EGFR.
Another series concerns the target HDAC1 (Homo sapiens, UniProt Q13547). Description: In vitro enzyme inhibition, HDAC1. As to conditions: mean ± SD of triplicate; read-out: In Vitro Protein Kinase Inhibition IC50 HDAC1. In kind it is biochemical.
The next series addresses mTOR (Homo sapiens, UniProt P42345). In words: In vitro enzyme inhibition, mTOR.

Each structure is given as a SMILES string.

As a reminder, the IC50 is the concentration needed to halve the response being measured. In general, melting point refers to the temperature, or range, at which the solid turns liquid.

VEGFR2, sequence (P35968 20-1356): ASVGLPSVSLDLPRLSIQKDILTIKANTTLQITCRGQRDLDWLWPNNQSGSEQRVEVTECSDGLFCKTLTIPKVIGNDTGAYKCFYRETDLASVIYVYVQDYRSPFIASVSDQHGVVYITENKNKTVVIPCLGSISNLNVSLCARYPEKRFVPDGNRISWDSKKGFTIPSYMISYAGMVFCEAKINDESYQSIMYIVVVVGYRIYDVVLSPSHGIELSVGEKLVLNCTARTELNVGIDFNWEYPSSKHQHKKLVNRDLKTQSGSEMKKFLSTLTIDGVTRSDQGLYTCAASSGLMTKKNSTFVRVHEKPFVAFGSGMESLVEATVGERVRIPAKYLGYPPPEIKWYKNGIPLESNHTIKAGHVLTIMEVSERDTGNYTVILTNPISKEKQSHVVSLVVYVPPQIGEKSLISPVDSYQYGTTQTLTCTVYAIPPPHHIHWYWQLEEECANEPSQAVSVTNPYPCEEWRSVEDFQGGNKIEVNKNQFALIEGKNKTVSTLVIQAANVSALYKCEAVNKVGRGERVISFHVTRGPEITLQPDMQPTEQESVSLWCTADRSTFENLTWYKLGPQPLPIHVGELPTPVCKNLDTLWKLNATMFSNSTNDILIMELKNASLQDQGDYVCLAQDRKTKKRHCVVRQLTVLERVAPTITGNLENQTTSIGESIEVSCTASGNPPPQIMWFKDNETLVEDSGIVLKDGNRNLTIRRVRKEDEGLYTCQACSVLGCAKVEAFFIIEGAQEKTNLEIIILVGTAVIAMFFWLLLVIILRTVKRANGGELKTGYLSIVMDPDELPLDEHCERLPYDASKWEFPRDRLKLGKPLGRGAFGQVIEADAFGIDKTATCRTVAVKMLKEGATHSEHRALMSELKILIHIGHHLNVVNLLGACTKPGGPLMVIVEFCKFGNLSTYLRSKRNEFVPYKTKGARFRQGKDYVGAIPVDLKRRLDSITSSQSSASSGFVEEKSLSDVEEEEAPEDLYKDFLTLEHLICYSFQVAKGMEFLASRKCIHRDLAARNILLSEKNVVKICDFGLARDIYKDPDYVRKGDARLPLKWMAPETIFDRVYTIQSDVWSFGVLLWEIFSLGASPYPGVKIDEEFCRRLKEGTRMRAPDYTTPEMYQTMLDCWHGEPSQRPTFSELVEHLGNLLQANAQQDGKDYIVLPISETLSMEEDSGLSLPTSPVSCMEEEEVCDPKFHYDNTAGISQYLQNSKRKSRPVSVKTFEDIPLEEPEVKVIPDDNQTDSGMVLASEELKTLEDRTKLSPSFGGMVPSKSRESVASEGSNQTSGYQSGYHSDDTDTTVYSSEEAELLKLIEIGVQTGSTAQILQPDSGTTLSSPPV
HDAC1, sequence (Q13547 whole entry): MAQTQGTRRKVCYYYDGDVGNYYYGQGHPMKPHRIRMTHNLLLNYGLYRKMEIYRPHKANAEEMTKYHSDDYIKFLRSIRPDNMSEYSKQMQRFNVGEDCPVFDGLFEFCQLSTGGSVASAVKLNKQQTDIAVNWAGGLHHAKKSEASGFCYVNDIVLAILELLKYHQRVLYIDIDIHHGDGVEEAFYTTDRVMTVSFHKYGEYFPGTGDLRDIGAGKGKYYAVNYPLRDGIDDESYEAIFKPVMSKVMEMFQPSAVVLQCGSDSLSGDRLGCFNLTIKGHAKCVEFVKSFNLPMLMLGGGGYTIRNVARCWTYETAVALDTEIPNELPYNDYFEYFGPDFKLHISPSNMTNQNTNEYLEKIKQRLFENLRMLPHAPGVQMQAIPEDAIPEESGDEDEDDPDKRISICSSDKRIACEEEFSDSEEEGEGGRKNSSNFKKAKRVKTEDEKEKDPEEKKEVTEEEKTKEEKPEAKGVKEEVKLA
EGFR, sequence (P00533 25-1210): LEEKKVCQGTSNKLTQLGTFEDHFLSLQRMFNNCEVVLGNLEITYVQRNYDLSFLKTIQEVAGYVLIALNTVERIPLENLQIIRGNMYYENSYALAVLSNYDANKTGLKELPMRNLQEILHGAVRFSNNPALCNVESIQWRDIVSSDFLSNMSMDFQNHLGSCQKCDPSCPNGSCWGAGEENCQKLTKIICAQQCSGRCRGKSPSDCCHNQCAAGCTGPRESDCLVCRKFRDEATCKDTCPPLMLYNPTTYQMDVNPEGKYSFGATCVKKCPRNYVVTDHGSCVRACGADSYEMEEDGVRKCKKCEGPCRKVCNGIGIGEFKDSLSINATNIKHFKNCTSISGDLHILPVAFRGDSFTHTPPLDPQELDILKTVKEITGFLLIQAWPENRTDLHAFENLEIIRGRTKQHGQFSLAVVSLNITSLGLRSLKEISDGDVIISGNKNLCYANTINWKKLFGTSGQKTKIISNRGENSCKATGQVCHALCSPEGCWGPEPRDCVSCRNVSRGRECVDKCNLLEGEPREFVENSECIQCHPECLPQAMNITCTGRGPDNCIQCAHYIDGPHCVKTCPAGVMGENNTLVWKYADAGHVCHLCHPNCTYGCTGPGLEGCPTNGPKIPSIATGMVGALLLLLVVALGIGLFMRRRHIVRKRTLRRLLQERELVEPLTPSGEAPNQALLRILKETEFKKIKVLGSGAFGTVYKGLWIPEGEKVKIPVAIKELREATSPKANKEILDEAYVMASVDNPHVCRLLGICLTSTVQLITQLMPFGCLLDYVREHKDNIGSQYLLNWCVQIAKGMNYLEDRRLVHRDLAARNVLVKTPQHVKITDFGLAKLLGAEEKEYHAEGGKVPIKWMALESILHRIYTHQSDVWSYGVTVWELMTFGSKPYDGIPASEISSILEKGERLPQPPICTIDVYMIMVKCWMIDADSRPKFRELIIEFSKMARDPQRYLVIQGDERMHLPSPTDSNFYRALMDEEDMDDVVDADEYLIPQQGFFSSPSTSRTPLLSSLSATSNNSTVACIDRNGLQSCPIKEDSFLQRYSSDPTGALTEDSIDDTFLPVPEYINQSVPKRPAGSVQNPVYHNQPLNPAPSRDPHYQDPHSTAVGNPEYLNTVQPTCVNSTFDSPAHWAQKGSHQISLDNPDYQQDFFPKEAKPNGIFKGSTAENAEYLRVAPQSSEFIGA

On to `O=C(N/N=C/c1ccc(Cl)cc1)c1ccc(NCc2nc3ccccc3[nH]2)cc1` [6g, (E)-4-(((1H-benzo[d]imidazol-2-yl)methyl)amino)-N′-(4-chlorobenzylidene)benzohydrazide], for which the melting point was 290 °C. Also, in [1], the IC50 turned out to be 22.5 ± 1.6 µM and the “SI (Selectivity Index) MCF-7” value is recorded as 3.16. For the same compound, the IC50 in series [2] was greater than 20 µM. This compound had a half-maximal inhibitory concentration (IC50) in [3] of 71.2 ± 3.5 µM. In series [4], the IC50 came out at 24.9 ± 1.7 µM and the “SI (Selectivity Index) HepG2” value came to 2.86. In [5], the IC50 was 35.3 ± 2.3 µM and the “SI (Selectivity Index) HCT-116” value is given as 2.02.

Compound `O=C(N/N=C/c1ccc(Br)cc1)c1ccc(NCc2nc3ccccc3[nH]2)cc1` [6d, (E)-4-(((1H-benzo[d]imidazol-2-yl)methyl)amino)-N′-(4-bromobenzylidene)benzohydrazide] returned a melting point of 287 °C. In [1], inhibition was half-maximal at 25.2 ± 1.8 µM (IC50) and the “SI (Selectivity Index) MCF-7” value came out at 2.16. In addition, in series [2], the IC50 is less than 30 µM. The same compound gave an IC50 in [3] of 54.3 ± 3.1 µM. In addition, in series [4], 17.8 ± 1.3 µM corresponded to half-maximal inhibition (IC50) and the “SI (Selectivity Index) HepG2” value stood at 3.05. Further, in series [5], the midpoint of inhibition, the IC50, lay at 30.3 ± 2.1 µM and the “SI (Selectivity Index) HCT-116” value was 1.79.

On to `O=C(N/N=C/c1ccccc1F)c1ccc(NCc2nc3ccccc3[nH]2)cc1` [6h, (E)-4-(((1H-benzo[d]imidazol-2-yl)methyl)amino)-N′-(2-fluorobenzylidene)benzohydrazide], for which the melting point is 289 °C. Further, in series [1], the IC50 turned out to be 16.3 ± 1.2 µM and the “SI (Selectivity Index) MCF-7” value is on record as 5.70. Further, the IC50 in series [2] was less than 30 µM. Moreover, at Her2, the IC50 is 0.0232 ± 1e-06 µM. In addition, it took 0.011 ± 4e-06 µM to reach half-maximal inhibition against AURKC (IC50). The compound further displayed an IC50 against CDK2 of 0.284 ± 1.2e-05 µM. For the same compound, half-maximal inhibition at VEGFR2 (IC50) was put at 0.1945 ± 7e-06 µM. The same compound showed an IC50 in series [3] of 93 ± 4.6 µM. Besides, at EGFR, half-maximal inhibition (IC50) required 0.0732 ± 4e-06 µM. In addition, at HDAC1, the IC50 came out at 0.1511 ± 5e-06 µM. Besides, in series [4], half-maximal inhibition (IC50) was put at 12.9 ± 1 µM and the “SI (Selectivity Index) HepG2” value is listed as 7.19. Besides, in series [5], the half-maximal inhibitory concentration (IC50) turned out to be 21.5 ± 1.6 µM and the “SI (Selectivity Index) HCT-116” value is reported as 4.33. The same compound displayed an IC50 against mTOR of 0.413 ± 1.4e-05 µM.

As for `CCN(CC)CCNC(=O)c1c(C)[nH]c(/C=C2\C(=O)Nc3ccc(F)cc32)c1C` [Sunitinib, reference compound], the IC50 in series [1] came out at 24.1 ± 2 µM; in series [3], 55.6 ± 3.3 µM; in series [4], 8.38 ± 0.5 µM; in series [5] it was 17.9 ± 1.3 µM.

As for `O=C(N/N=C/c1cccc(Cl)c1)c1ccc(NCc2nc3ccccc3[nH]2)cc1` [6f, (E)-4-(((1H-benzo[d]imidazol-2-yl)methyl)amino)-N′-(3-chlorobenzylidene)benzohydrazide], the melting point amounted to 271 °C. In series [1], this compound displayed an IC50 of 45.6 ± 2.5 µM. For the same compound, in series [2], the IC50 is greater than 20 µM. The compound further showed an IC50 in series [3] greater than 100 µM. The compound also had an IC50 in [4] of 34.8 ± 2.1 µM. Moreover, the 50% inhibitory concentration (IC50) in series [5] was 63.7 ± 3.5 µM.

`O=C(N/N=C/c1ccccc1)c1ccc(NCc2nc3ccccc3[nH]2)cc1` [6a, (E)-4-(((1H-benzo[d]imidazol-2-yl)methyl)amino)-N′-benzylidenebenzohydrazide]: the melting point was 278 °C. For the same compound, in [1], the IC50 stood at 26.3 ± 1.9 µM and the “SI (Selectivity Index) MCF-7” value was 2.76. In addition, in [2], the IC50 was greater than 20 µM. Further, in series [3], it took 72.6 ± 4 µM to reach half-maximal inhibition (IC50). For the same compound, in series [4], the midpoint of inhibition, the IC50, lay at 31.8 ± 2.2 µM and the “SI (Selectivity Index) HepG2” value is reported as 2.29. In series [5], inhibition was half-maximal at 24.6 ± 1.9 µM (IC50) and the “SI (Selectivity Index) HCT-116” value worked out at 2.95.

`O=C(N/N=C/c1cccc(Br)c1)c1ccc(NCc2nc3ccccc3[nH]2)cc1` [6c, (E)-4-(((1H-benzo[d]imidazol-2-yl)methyl)amino)-N′-(3-bromobenzylidene)benzohydrazide] registered a melting point of 278 °C. Moreover, in series [1], the IC50 came to 7.82 ± 0.6 µM and the “SI (Selectivity Index) MCF-7” value came to 6.16. In addition, the concentration for half-maximal inhibition (IC50) in series [2] fell in the range of 7.82 to 10.2 µM. For the same compound, the IC50 on Her2 was 0.0556 ± 2.3e-05 µM. Further, the midpoint of inhibition at AURKC, the IC50, lay at 0.0944 ± 3.6e-05 µM. The IC50 at CDK2 came out at 0.938 ± 3.9e-05 µM. This compound also came in with an IC50 against VEGFR2 of 0.6045 ± 2.2e-05 µM. The concentration for half-maximal inhibition (IC50) in [3] stood at 48.2 ± 2.7 µM. For the same compound, on EGFR, half-maximal inhibition (IC50) required 0.1252 ± 4.1e-05 µM. The IC50 at HDAC1 turned out to be 2.263 ± 7.7e-05 µM. In series [4], 8.9 ± 0.6 µM corresponded to half-maximal inhibition (IC50) and the “SI (Selectivity Index) HepG2” value amounted to 5.41. Also, in series [5], the IC50 worked out at 10.2 ± 0.8 µM and the “SI (Selectivity Index) HCT-116” value is given as 4.72. The compound further displayed an IC50 against mTOR of 1.461 ± 5e-05 µM.

`O=C(N/N=C/c1ccccc1Br)c1ccc(NCc2nc3ccccc3[nH]2)cc1` [6b, (E)-4-(((1H-benzo[d]imidazol-2-yl)methyl)amino)-N′-(2-bromobenzylidene)benzohydrazide] had a melting point of 284 °C. Further, in series [1], inhibition was half-maximal at 31.8 ± 2.1 µM (IC50) and the “SI (Selectivity Index) MCF-7” value was determined as 2.64. For the same compound, the IC50 in series [2] is greater than 20 µM. This compound also returned an IC50 in series [3] of 84.2 ± 4.3 µM. In series [4], the IC50 is 26.2 ± 1.9 µM and the “SI (Selectivity Index) HepG2” value turned out to be 3.22. Also, in series [5], the midpoint of inhibition, the IC50, lay at 42.9 ± 2.5 µM and the “SI (Selectivity Index) HCT-116” value came out at 1.96.

`O=C(N/N=C/c1ccc(Cl)cc1Cl)c1ccc(NCc2nc3ccccc3[nH]2)cc1` [6k, (E)-4-(((1H-benzo[d]imidazol-2-yl)methyl)amino)-N′-(2,4-dichlorobenzylidene)benzohydrazide]: the melting point came to 294 °C. In series [1], the IC50 worked out at 48.6 ± 2.7 µM. Further, the IC50 in series [2] was greater than 20 µM. In addition, the 50% inhibitory concentration (IC50) in series [3] is greater than 100 µM. This compound also displayed an IC50 in [4] of 44.8 ± 2.4 µM. The compound also came in with an IC50 in series [5] of 67.8 ± 3.8 µM.

Take `O=C(N/N=C/c1cc(F)ccc1F)c1ccc(NCc2nc3ccccc3[nH]2)cc1` [6l, (E)-4-(((1H-benzo[d]imidazol-2-yl)methyl)amino)-N′-(2,5-difluorobenzylidene)benzohydrazide]: the melting point turned out to be 160 °C. Also, in [1], the midpoint of inhibition, the IC50, lay at 29.8 ± 2 µM and the “SI (Selectivity Index) MCF-7” value is reported as 2.60. Further, the concentration for half-maximal inhibition (IC50) in series [2] was greater than 20 µM. The compound further displayed an IC50 in series [3] of 77.6 ± 4.1 µM. For the same compound, in [4], the IC50 came out at 20 ± 1.5 µM and the “SI (Selectivity Index) HepG2” value worked out at 3.88. For the same compound, in [5], the IC50 turned out to be 39.8 ± 2.2 µM and the “SI (Selectivity Index) HCT-116” value is 1.95.

With `O=C(N/N=C/c1ccccc1Cl)c1ccc(NCc2nc3ccccc3[nH]2)cc1` [6e, (E)-4-(((1H-benzo[d]imidazol-2-yl)methyl)amino)-N′-(2-chlorobenzylidene)benzohydrazide], the melting point worked out at 289 °C. In series [1], the IC50 is 36.2 ± 2.3 µM and the “SI (Selectivity Index) MCF-7” value is recorded as 1.71. In series [2], the IC50 is greater than 20 µM. This compound showed an IC50 in [3] of 61.9 ± 3.5 µM. For the same compound, in series [4], half-maximal inhibition (IC50) was put at 28.8 ± 1.7 µM and the “SI (Selectivity Index) HepG2” value came to 2.15. Besides, in series [5], the IC50 stood at 46.7 ± 2.7 µM and the “SI (Selectivity Index) HCT-116” value worked out at 1.33.
